Measured values published in publication PMC8533363, “Effective Perturbations on the Amplitude and Hysteresis of Erg-Mediated Potassium Current Caused by 1-Octylnonyl 8-[(2-hydroxyethyl)[6-oxo-6(undecyloxy)hexyl]amino]-octanoate (SM-102), a Cationic Lipid” (Biomedicines, 2021).

Biological target: T1, erg-mediated K+ (Kerg, KV11) channel (Rattus norvegicus, UniProt O08962)
T1 construct: gene Kcnh2; native channel in GH3 pituitary tumor cells
T1 sequence (O08962 1-1163): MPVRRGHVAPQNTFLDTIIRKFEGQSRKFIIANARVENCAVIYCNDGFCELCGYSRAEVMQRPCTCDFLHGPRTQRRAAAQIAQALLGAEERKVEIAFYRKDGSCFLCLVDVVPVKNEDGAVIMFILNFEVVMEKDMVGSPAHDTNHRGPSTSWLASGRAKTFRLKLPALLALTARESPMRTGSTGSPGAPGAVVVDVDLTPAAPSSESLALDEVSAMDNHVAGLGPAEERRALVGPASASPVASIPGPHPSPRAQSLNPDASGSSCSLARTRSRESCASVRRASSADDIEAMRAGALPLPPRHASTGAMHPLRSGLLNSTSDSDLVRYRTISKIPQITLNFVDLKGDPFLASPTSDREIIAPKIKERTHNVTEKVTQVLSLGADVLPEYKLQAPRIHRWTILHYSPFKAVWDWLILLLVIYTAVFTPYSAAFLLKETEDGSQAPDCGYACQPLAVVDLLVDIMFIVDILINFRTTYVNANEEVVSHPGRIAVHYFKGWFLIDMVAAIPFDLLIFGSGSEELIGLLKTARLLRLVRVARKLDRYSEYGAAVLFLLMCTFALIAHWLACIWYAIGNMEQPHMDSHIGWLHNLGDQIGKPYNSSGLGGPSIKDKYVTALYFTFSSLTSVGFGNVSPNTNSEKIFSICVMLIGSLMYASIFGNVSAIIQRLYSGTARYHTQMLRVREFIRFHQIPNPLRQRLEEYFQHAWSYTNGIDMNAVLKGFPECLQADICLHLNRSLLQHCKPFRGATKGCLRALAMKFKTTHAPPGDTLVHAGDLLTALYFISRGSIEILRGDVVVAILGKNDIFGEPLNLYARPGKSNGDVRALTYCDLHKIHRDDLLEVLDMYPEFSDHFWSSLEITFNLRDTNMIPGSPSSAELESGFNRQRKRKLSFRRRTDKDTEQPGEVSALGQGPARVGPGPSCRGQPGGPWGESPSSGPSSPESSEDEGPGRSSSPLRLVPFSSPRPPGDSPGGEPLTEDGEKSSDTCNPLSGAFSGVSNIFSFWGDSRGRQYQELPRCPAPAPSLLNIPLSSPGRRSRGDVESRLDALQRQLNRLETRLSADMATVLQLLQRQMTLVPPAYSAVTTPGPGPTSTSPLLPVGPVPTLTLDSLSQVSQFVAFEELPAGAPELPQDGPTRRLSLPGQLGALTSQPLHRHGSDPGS
Assay: whole-cell patch clamp of native IK(erg) in GH3 cells; concentration-response and deactivation kinetics (KD […])
Type: cell-based

For `CCCCCCCCCCCOC(=O)CCCCCN(CCO)CCCCCCCC(=O)OC(CCCCCCCC)CCCCCCCC` [SM-102, 1-octylnonyl 8-[(2-hydroxyethyl)[6-oxo-6-(undecyloxy)hexyl]amino]-octanoate], the IC50 was 108 µM.
